According to patent publication EP4729061A1, “USE OF AKT INHIBITOR IN PREPARATION OF DRUG FOR PREVENTING OR TREATING BREAST CANCER” (Nanjing Chia Tai Tianqing Pharmaceutical Co., Ltd., priority 2023, dated 2024):
Read-outs that look alike come from different tables or passages of the source.

How the values were obtained:
[1] = Plasma pharmacokinetics in the xenograft mice on day 28 of treatment; assay type: in vivo, female BALB/c nude mice; conditions: for AUC(0-inf) / AUC(0-t) / Cmax / Tmax / half-life / MRT inf: female, BALB/c nude; for MRT inf: read-out: MRTInf_obs
Source text: The purpose of this study was to evaluate the therapeutic efficacy of the compound of Formula (A) in combination with fulvestrant in the MCF-7 human breast cancer subcutaneous xenograft model in female BALB/c nude mice.
On the 28th day of treatment for the mice in Experiment 2, animal plasma was continuously collected for PK detection, with a total of 112 plasma samples and 16 tumor samples. PK sample sampling protocol

[2] = Clinical trial of the compound of Formula (A) tablets as monotherapy: pharmacokinetics; assay type: in vivo, patients with advanced malignant solid tumors; conditions: 400mg Monotherapy; for half-life / AUC(0-t) / Cmax / Vd/F: 400 mg
Source text: All contents of the trial protocol with registration number CTR20211999 on the China Drug Clinical Trial Registration and Information Disclosure Platform and results thereof are incorporated herein by reference.
Study Objectives: To evaluate the safety and tolerability of the compound of Formula (A) in patients with advanced malignant solid tumors (including breast cancer and ovarian cancer) who have failed standard treatment, and to explore the maximum tolerated dose (MTD) of the compound of Formula (A), and determine the recommended phase II dose (RP2D). To evaluate the pharmacokinetic (PK) characteristics of the compound of Formula (A) following a single dose and continuous administration for 21 days in patients with advanced solid tumors. To assess the preliminary efficacy of the compound of Formula (A) in the treatment of advanced solid tumors.
Trial Design: The study was an open-label, single-arm, non-randomized clinical trial focusing on safety, efficacy, and pharmacokinetics. The first part was the dose-finding phase, and the second part was the dose-expansion phase.
A starting dose of 20 mg of the compound of Formula (A) was selected, with successive dose-finding groups set as 20 mg, 50 mg, 100 mg, 200 mg, 300 mg, and 400 mg. The administration regimen included once-daily single-dose administration (with a 7-day washout period) and multiple-dose administration (continuous administration for 21 days, 28 days as one cycle, treatment continued until intolerable toxicity, disease progression, or subject withdrawal).
The dose-expansion phase was initiated after the completion of the dose-finding phase. Based on the results of dose escalation, the dosage for the dose-expansion group was determined, with oral administration once daily (continuous administration for 21 days, 28 days as one cycle, and treatment will be continued until intolerable toxicity, disease progression, or subject withdrawal).
1) Safety and Tolerability: Maximum Tolerated Dose (MTD) and Dose-Limiting Toxicity (DLT); 2) PK Indicators: See Tables 13 and 14 below; 3) Efficacy Indicators: Objective Response Rate (ORR), Disease Control Rate (DCR), Duration of Response (DOR), and Progression-Free Survival (PFS). Table 13. PK Indicators of the compound of Formula (A) monotherapy in the dose-finding phase

[3] = sc, analyte: fulvestrant in plasma, 5 mg/mouse s.c. alone (G3) or + the compound of Formula (A) 25 mg/kg (G4)
[4] = Multiple Doses, n=8, dose-expansion phase
[5] = human, in vivo, oral, Single Dose, n=10, dose-finding phase
[6] = po, analyte: the compound of Formula (A) in plasma, 25 mg/kg p.o. alone (G2) or + Fulvestrant 5 mg/mouse (G4)

In the case of C[C@]12CC[C@@H]3c4ccc(O)cc4C[C@@H](CCCCCCCCC[S+]([O-])CCCC(F)(F)C(F)(F)F)[C@H]3[C@@H]1CC[C@@H]2O (some centres unmarked) [Fulvestrant, reference compound], the AUC%Extrap_obs ([1]; analyte: fulvestrant in plasma, 5 mg/mouse s.c. alone (G3) or + the compound of Formula (A) 25 mg/kg (G4)) is reported as 12.6%, the AUC(0-inf) [1, 3] is reported as 6610 ng·h/mL and the AUC(0-t) [1, 3] is reported as 5780 ng·h/mL. For the same compound, the Cmax [1, 3] was 268 ng/mL, the Tmax [1, 3] was 0.375 h and the half-life [1, 3] was 1420 min. The MRT inf [1, 3] was 37.7 h.
In the case of CC(C)NC[C@@H](C(=O)N1CCN(c2ncnc3c2[C@H](C)CC(=O)N3)[C@H]2C[C@H]21)c1ccc(Cl)cc1 [The compound of Formula (A), (R)-4-((1S,6R)-5-((S)-2-(4-chlorophenyl)-3-(isopropylamino)propanoyl)-2,5-diazabicyclo[4.1.0]heptan-2-yl)-5-methyl-5,8-dihydropyrido[2,3-d]pyrimidin-7(6H)-one], the CLss/F [2, 4] is reported as 155.88 ± 81.87 L/h, the “Cav,ss” value [2, 4] is reported as 131.73 ± 64.21 ng/mL and the “Cmin,ss” value [2, 4] is reported as 33.76 ± 14.66 ng/mL. The “Tmax,ss” value [2, 4] was 3.00 [0,6.00] h, the CL/F ([2]; Single Dose, n=10, dose-finding phase) was 186.378 ± 99.471 L/h and the half-life ([2]; human, in vivo, oral, Multiple Doses, n=8, dose-expansion phase) was 777 ± 251 min. For the same compound, the AUC(0-t) ([2]; human, in vivo, oral, Multiple Doses, n=8, dose-expansion phase, read-out: AUC0-t,ss) was 3530 ± 1770 ng·h/mL, the Cmax ([2]; human, in vivo, oral, Multiple Doses, n=8, dose-expansion phase, read-out: Cmax,ss) was 462 ± 245 ng/mL and the Vd/F ([2]; human, in vivo, oral, Multiple Doses, n=8, dose-expansion phase, read-out: Vss/F) was 2880 ± 1670 L. For the same compound, the half-life [2, 5] was 433 ± 115 min, the AUC(0-t) ([2]; human, in vivo, oral, Single Dose, n=10, dose-finding phase, read-out: AUC0-t) was 2380 ± 1160 ng·h/mL and the Cmax ([2]; human, in vivo, oral, Single Dose, n=10, dose-finding phase, read-out: Cmax) was 392 ± 178 ng/mL. For the same compound, the Vd/F ([2]; human, in vivo, oral, Single Dose, n=10, dose-finding phase, read-out: Vz/F) was 1920 ± 1000 L, the AUC ([2]; human, in vivo, oral, Multiple Doses, n=8, dose-expansion phase, read-out: AUC0-τ) was 3160 ± 1540 ng·h/mL and the Tmax [2, 5] was 3 h. It also gave an AUC%Extrap_obs ([1]; analyte: the compound of Formula (A) in plasma, 25 mg/kg p.o. alone (G2) or + Fulvestrant 5 mg/mouse (G4)) of 1.48%, an AUC(0-inf) [1, 6] of 18800 ng·h/mL and an AUC(0-t) [1, 6] of 18500 ng·h/mL. It also gave a Cmax [1, 6] of 1340 ng/mL, a Tmax [1, 6] of 2.75 h and a half-life [1, 6] of 476 min. It also gave an MRT inf [1, 6] of 10.5 h.
